Assay results published in patent US8071581B2, “Triazolopyridazine protein kinase modulators” (SGX Pharmaceuticals, Inc., priority 2006, dated 2011).
pEC50, pIC50: −log10 of the molar value.

How the values were obtained:
[1] = molecular target: MET kinase (c-MET), kinase domain of human Met (Homo sapiens, UniProt P08581); assay: MET luminescence-based enzyme assay (Kinase-Glo)
GTL16 = GTL16 cell assay (EC50); assay type: cell-based; settings: Homo sapiens, GTL 16
Protocol: Compounds were tested in the following assays in duplicate. 96-well XTT assay: Cells were grown in growth media containing various concentrations of compounds (duplicates) on a 96-well flat bottom plate for 72 hours at 37° C. in 5% CO2. The starting cell number was 5000 cells per well and volume was 120 μl. At the end of the 72-hour incubation, 40 μl of XTT labeling mixture (50:1 solution of sodium 3′-[1-(phenylaminocarbonyl)-3,4-tetrazolium]-bis(4-methoxy-6-nitro) benzene sulfonic acid hydrate and Electron-coupling reagent: PMS (N-methyl dibenzopyrazine methyl sulfate) were added to each well of the plate. After an additional 2-6 hours […] with a spectrophotometer.

Chain of MET kinase (c-MET), kinase domain of human Met (P08581 1078-1345 limits assumed): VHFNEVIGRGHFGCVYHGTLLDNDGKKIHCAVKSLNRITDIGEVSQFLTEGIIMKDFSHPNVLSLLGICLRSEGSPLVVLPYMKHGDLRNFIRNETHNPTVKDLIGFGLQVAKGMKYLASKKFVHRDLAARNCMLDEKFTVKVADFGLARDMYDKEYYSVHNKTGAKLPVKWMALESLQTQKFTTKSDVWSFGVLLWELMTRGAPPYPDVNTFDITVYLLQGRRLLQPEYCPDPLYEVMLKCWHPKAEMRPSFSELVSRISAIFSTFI

pIC50 [1]	pEC50 (GTL16; Table 1)	pEC50 (GTL16; Table 2)	Structure (SMILES)
> 7.00	–	–	CCc1ccc2nnc(Cc3c(F)cc4ncc(-c5cnn(C6CN(CC)C6)c5)cc4c3F)n2n1 [compound 187]
> 7.00	6.00 to 7.00	–	CNC(=O)c1ccc(-c2ccc3nnc(Cc4ccc5ncsc5c4)n3n2)cc1F [compound 101]
6.00 to 7.00	–	–	CCc1ccc2nnc(Cc3c(F)cc4ncc(Br)cc4c3F)n2n1 [compound 115]
5.00 to 6.00	6.00 to 7.00	–	Cc1ccc2nnc(Cc3c(F)cc4ncc(Br)cc4c3F)n2n1 [compound 28]
> 7.00	–	–	CCN1CC(n2cc(-c3cnc4cc(F)c(Cc5nnc6ccc(C)nn56)c(F)c4c3)cn2)C1 [compound 188]
6.00 to 7.00	6.00 to 7.00	–	CS(=O)(=O)c1ccc(-c2ccc3nnc(Cc4ccc5ncccc5c4)n3n2)cc1 [compound 5]
> 7.00	> 7.00	–	CCNC(=O)c1ccc(-c2ccc3nnc(Cc4ccc5ncccc5c4)n3n2)cc1F [compound 75]
6.00 to 7.00	5.00 to 6.00	–	N#Cc1cc(-c2ccc3nnc(Cc4ccc5ncccc5c4)n3n2)ccc1F [compound 69]
6.00 to 7.00	6.00 to 7.00	–	N#Cc1cccc(-c2ccc3nnc(Cc4ccc5ncsc5c4)n3n2)c1 [compound 98]
> 7.00	–	> 7.00	CCc1ccc2nnc(Cc3c(F)cc4ncc(-c5cnn(C)c5)cc4c3F)n2n1 [compound 166, 6-(6-Ethyl-[1,2,4]triazolo[4,3-b]pyridazin-3-ylmethyl)-5,7-difluoro-3-(1-methyl-1H-pyrazol-4-yl)-quinoline]
> 7.00	–	6.00 to 7.00	Cc1ccc2nnc(Cc3ccc4ncc(-c5cnn(CC(=O)O)c5)cc4c3)n2n1 [compound 134]
> 7.00	–	–	Cc1ccc2nnc(C(C)c3ccc4ncc(Br)cc4c3)n2n1 (stereo not drawn) [compound 119, 3-Bromo-6-[1-(6-methyl-[1,2,4]triazolo[4,3-b]pyridazin-3-yl)-ethyl]-quinoline]
> 7.00	–	> 7.00	CCCn1cc(-c2cnc3ccc(Cc4nnc5ccc(C)nn45)cc3c2)cn1 [compound 163]
> 7.00	–	> 7.00	CCN(CC)CCn1cc(-c2cnc3ccc(Cc4nnc5ccc(C)nn45)cc3c2)cn1 [compound 173]
6.00 to 7.00	–	6.00 to 7.00	Cc1ccc2nnc(Cc3ccc4ncc(-n5ccnc5)cc4c3)n2n1 [compound 132, 3-Imidazol-1-yl-6-(6-methyl-[1,2,4]triazolo[4,3-b]pyridazin-3-ylmethyl)-quinoline]
6.00 to 7.00	6.00 to 7.00	–	CN1CCN(c2ccc3nnc(Cc4ccc5ncccc5c4)n3n2)CC1 [compound 113]
5.00 to 6.00	–	–	Clc1nc2ccc(Cc3nnc4ccc(-c5ccccc5)nn34)cc2s1 [compound 44]
6.00 to 7.00	6.00 to 7.00	–	c1ccc(Oc2ccc3nnc(Cc4ccc5ncccc5c4)n3n2)cc1 [compound 8]
> 7.00	6.00 to 7.00	–	O=C(NCC(F)(F)F)c1ccc(-c2ccc3nnc(Cc4ccc5ncccc5c4)n3n2)cc1 [compound 72]
6.00 to 7.00	6.00 to 7.00	–	CN(C)c1cccc(-c2ccc3nnc(Cc4ccc5ncccc5c4)n3n2)c1 [compound 67]
6.00 to 7.00	–	–	Fc1cc(F)cc(-c2ccc3nnc(Cc4ccc5ncsc5c4)n3n2)c1 [compound 97]
> 7.00	> 7.00	–	Brc1cnc2ccc(Cc3nnc4nccnn34)cc2c1 [compound 117, 3-Bromo-6-[1,2,4]triazolo[4,3-b][1,2,4]triazin-3-ylmethyl-quinoline]
6.00 to 7.00	6.00 to 7.00	–	Fc1ccc(Oc2ccc3nnc(Cc4ccc5ncccc5c4)n3n2)cc1F [compound 7, 6-[6-(3,4-Difluoro-phenoxy)-[1,2,4]triazolo[4,3-b]pyridazin-3-ylmethyl]-quinoline]
6.00 to 7.00	6.00 to 7.00	–	O=S(=O)(c1ccc(-c2ccc3nnc(Cc4ccc5ncccc5c4)n3n2)cc1)N1CCCC1 [compound 2]
5.00 to 6.00	–	–	Cc1ccc2nnc(Cc3ccc4ncc(C#N)cc4c3)n2n1 [compound 110, 6-(6-Methyl-[1,2,4]triazolo[4,3-b]pyridazin-3-ylmethyl)-quinoline-3-carbonitrile]
> 7.00	–	6.00 to 7.00	Cc1ccc2nnc(Cc3ccc4ncc(-c5cnn(CC6CN(S(C)(=O)=O)C6)c5)cc4c3)n2n1 [compound 172, 3-[1-(1-Methanesulfonyl-azetidin-3-ylmethyl)-1H-pyrazol-4-yl]-6-(6-methyl-[1,2,4]triazolo[4,3-b]pyridazin-3-ylmethyl)-quinoline]
> 7.00	> 7.00	–	NC(=O)c1ccc(-c2ccc3nnc(Cc4ccc5ncccc5c4)n3n2)cc1 [compound 24]
6.00 to 7.00	6.00 to 7.00	–	CN(C)C(=O)c1ccc(-c2ccc3nnc(Cc4ccc5ncccc5c4)n3n2)cc1 [compound 34]

pIC50 [1]	pEC50 (GTL16; Table 1)	pEC50 (GTL16; Table 2)	Structure (SMILES)
> 7.00	–	> 7.00	CN(C)c1ccc2nnc(Cc3ccc4ncc(-c5cnn(C)c5)cc4c3)n2n1 [compound 159, Dimethyl-{3-[3-(1-methyl-1H-pyrazol-4-yl)-quinolin-6-ylmethyl]-[1,2,4]triazolo[4,3-b]pyridazin-6-yl}-amine]
6.00 to 7.00	5.00 to 6.00	–	Oc1ccc(Cc2nnc3ccc(-c4ccccc4)nn23)cc1 [compound 14]
6.00 to 7.00	–	5.00 to 6.00	Cc1ccc2nnc(Cc3ccc4ncc(-c5ccc(C(=O)O)cc5)cc4c3)n2n1 [compound 136]
6.00 to 7.00	5.00 to 6.00	–	CC(=O)Nc1cccc(-c2ccc3nnc(Cc4ccc5ncccc5c4)n3n2)c1 [compound 57]
6.00 to 7.00	–	5.00 to 6.00	Cc1ccc2nnc(Cc3ccc4ncc(-c5cc(F)cc(F)c5)cc4c3)n2n1 [compound 128]
> 7.00	–	–	CCc1cnc2ccc(Cc3nnc4ccc(C)nn34)cc2c1 [compound 116, 3-Ethyl-6-(6-methyl-[1,2,4]triazolo[4,3-b]pyridazin-3-ylmethyl)-quinoline]
> 7.00	–	–	CCc1ccc2nnc(Cc3c(F)cc4ncc(-c5cnn(C6CNC6)c5)cc4c3F)n2n1 [compound 185]
5.00 to 6.00	–	–	Cc1cc(Cc2nnc3ccc(-c4cnn(C)c4)nn23)cc2cccnc12 [compound 91]
4.30 to 5.00	–	–	CC(C)(c1ccc2ncccc2c1)c1nnc2ccc(-c3ccccc3)nn12 [compound 18]
5.00 to 6.00	–	–	Cc1ccc2cc(Cc3nnc4ccc(-c5ccccc5)nn34)ccc2n1 [compound 38, 2-Methyl-6-(6-phenyl-[1,2,4]triazolo[4,3-b]pyridazin-3-ylmethyl)-quinoline]
> 7.00	–	–	CCc1ccc2nnc(Cc3ccc4ncc(-c5cnn(C6CN(CC)C6)c5)cc4c3F)n2n1 [compound 186]
> 7.00	–	–	CCc1ccc2nnc(Cc3ccc4ncc(-c5cnn(C6CNC6)c5)cc4c3F)n2n1 [compound 184]
6.00 to 7.00	–	–	Cc1ccc2nnc(Cc3ccc4ncc(-c5c[nH]nc5C)cc4c3)n2n1 [compound 150]
5.00 to 6.00	–	–	Cc1ccc2nnc(Cn3ccc4ncc(-c5cnn(C)c5)cc43)n2n1 [compound 178]
> 7.00	–	–	CCc1ccc2nnc(Cc3ccc4ncc(-c5cnn(C6CNC6)c5)cc4c3)n2n1 [compound 189]
5.00 to 6.00	–	–	Cn1cc(-c2ccc3nnc(Cc4cc(F)c5ncccc5c4)n3n2)cn1 [compound 92]
6.00 to 7.00	–	–	Cc1ccc2nnc(Cc3ccc4ncc(-n5cccn5)cc4c3)n2n1 [compound 127]
> 7.00	–	–	CCN1CC(n2cc(-c3cnc4ccc(C(C)c5nnc6ccc(C)nn56)cc4c3)cn2)C1 (stereo not drawn) [compound 190]
6.00 to 7.00	–	–	Cc1ccc2nnc(Cc3ccc4ncccc4c3)n2n1 [compound 105]
> 7.00	–	–	Cc1ccc2nnc(C(C)c3ccc4ncc(-c5cnn(C)c5)cc4c3)n2n1 (stereo not drawn) [compound 191]
6.00 to 7.00	–	–	C[C@H](c1ccc2ncsc2c1)c1nnc2ccc(-c3cccc(C#N)c3)nn12 [compound 104, I-3-[3-(1-Benzothiazol-6-yl-ethyl)-[1,2,4]triazolo[4,3-b]pyridazin-6-yl]-benzonitrile]
6.00 to 7.00	–	–	Cc1ccc2nnc(Cc3ccc4ncc(Br)cc4c3)n2n1 [compound 106]
5.00 to 6.00	–	–	Fc1cccc(-c2ccc3nnc(Cc4ccc5ncsc5c4)n3n2)c1 [compound 93]
6.00 to 7.00	–	–	CCc1ccc2nnc(Cc3ccc4ncc(Br)cc4c3F)n2n1 [compound 121]
> 7.00	–	–	Cc1ccc2nnc(Cc3ccc4ncc(-c5cnn(C6CN(C)C6)c5)cc4c3)n2n1 [compound 183]
4.30 to 5.00	–	–	c1ccc(-c2ccc3nnc([C@H]4C[C@@H]4c4ccc5ncccc5c4)n3n2)cc1 [compound 40]
4.30 to 5.00	–	–	c1ccc(-c2ccc3nnc(CCc4ccc5ncccc5c4)n3n2)cc1 [compound 39]

Structure (SMILES)	pIC50 [1]	pEC50 (GTL16; Table 1)	pEC50 (GTL16; Table 2)
Fc1cc2ncccc2c(F)c1Cc1nnc2ccc(Cl)nn12 [compound 111, 6-(6-Chloro-[1,2,4]triazolo[4,3-b]pyridazin-3-ylmethyl)-5,7-difluoro-quinoline]	6.00 to 7.00	6.00 to 7.00	–
c1ccc(-c2ccc3nnc(Cc4ccc5ncccc5c4)n3n2)cc1 [compound 16]	6.00 to 7.00	6.00 to 7.00	–
Fc1ccc(-c2ccc3nnc(Cc4ccc5ncccc5c4)n3n2)cc1F [compound 73]	–	> 7.00	–
N#Cc1ccc(-c2ccc3nnc(Cc4ccc5ncccc5c4)n3n2)cc1 [compound 60]	–	6.00 to 7.00	–
Cn1cc(-c2ccc3nnc(Cc4c[nH]c5ncccc45)n3n2)cn1 [compound 108, 6-(1-Methyl-1H-pyrazol-4-yl)-3-(1H-pyrrolo[2,3-b]pyridine-3-ylmethyl)-[1,2,4]triazolo[4,3-b]pyridazine]	–	> 7.00	–
Clc1ccc2nnc(Cc3ccc4ncccc4c3)n2n1 [compound 15, 6-(6-Chloro-[1,2,4]triazolo[4,3-b]pyridazin-3-ylmethyl)-quinoline]	–	5.00 to 6.00	–
N#Cc1cccc(-c2ccc3nnc(Cc4ccc5ncccc5c4)n3n2)c1 [compound 59]	–	> 7.00	–
